This passage reports IC50, inhibition and Ki results from ChEMBL document CHEMBL4507294, “Data for DCP probe MSD-CYP11B2” (2021).

The IC50 is the concentration that gives 50% inhibition. By inhibition is commonly meant the relative decrease from the control value, in per cent. In general, Ki refers to a dissociation constant, usually derived from enzyme kinetics or from competition with a known ligand. Lower therefore signals higher affinity.

The target in test [1] is Cytochrome P450 11B1, mitochondrial (Homo sapiens, UniProt P15538). Put plainly: Assay using V79 cell lines (CYP11B1). Type of test: cell-based.
The target in test [2] is Sodium-dependent serotonin transporter (Homo sapiens) (UniProt P31645). The note with it: Compound concentration 10.0 uM.
The target in test [3] is Cytochrome P450 11B2, mitochondrial (Homo sapiens, UniProt P19099). Nature of the test: Assay using V79 cell lines (CYP11B2). The format is cell-based.
Test [4] deals with T1, 5-hydroxytryptamine receptor 2B (Homo sapiens, UniProt P41595).
Test [5] has as its target Acetylcholine receptor subunit alpha (Homo sapiens) (UniProt P02708). Nature of the test: Inhibition of Nicotinic Acetylcholine D1, Bungarotoxin at 10 µM in the Eurofins-Panlabs radioligand binding assay (Eurofins_assay_258700). The note with it: Compound concentration 10.0 uM.
The target of test [6] is GABA-A receptor; anion channel (Rattus norvegicus) (UniProt O09028+P15431+P18506+P18508+P19969+P20236+P23574+P23576+P28471+P28473+P30191+P62813+P63079+P63138+Q91ZM7+Q9ES14). The note with it: Compound concentration 10.0 uM.
In test [7] the target is D(1A) dopamine receptor (Homo sapiens) (UniProt P21728). The note with it: Compound concentration 10.0 uM.
For test [8], the target named is T2, Beta-1 adrenergic receptor (Homo sapiens, UniProt P08588). Nature of the test: Inhibition of Adrenergic beta1 at compound concentration of 10.0 uM in the Eurofins-Panlabs radioligand binding assay (Eurofins_assay_204010). The arrangement: ligand concentration 0.03 nM, non-specific ligand with concentration 100 uM S(-)-Propranolol, incubation time 2 h, incubation temperature 25 C.
Target sequence in this assay (P08588 whole entry): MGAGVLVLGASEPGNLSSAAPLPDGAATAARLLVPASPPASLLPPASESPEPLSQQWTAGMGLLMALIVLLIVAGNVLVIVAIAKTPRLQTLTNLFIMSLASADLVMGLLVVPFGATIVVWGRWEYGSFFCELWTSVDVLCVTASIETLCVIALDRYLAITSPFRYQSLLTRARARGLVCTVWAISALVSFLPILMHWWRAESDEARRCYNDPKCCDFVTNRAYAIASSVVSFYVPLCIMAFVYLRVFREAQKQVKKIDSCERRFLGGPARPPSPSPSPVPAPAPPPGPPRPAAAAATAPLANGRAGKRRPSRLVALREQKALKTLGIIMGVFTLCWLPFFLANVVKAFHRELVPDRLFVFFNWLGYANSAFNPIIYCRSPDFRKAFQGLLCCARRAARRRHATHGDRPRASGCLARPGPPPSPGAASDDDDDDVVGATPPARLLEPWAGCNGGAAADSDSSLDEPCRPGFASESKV

In test [9] the target is Neuropeptide Y receptor type 1 (Homo sapiens) (UniProt P25929). Put plainly: Inhibition of Neuropeptide Y Y1 at 10 µM in the Eurofins-Panlabs radioligand binding assay (Eurofins_assay_257010). The note with it: Compound concentration 10.0 uM.
Test [10] concerns the target Cholecystokinin receptor type A (Homo sapiens) (UniProt P32238). Nature of the test: Inhibition of Cholecystokinin CCK1 (CCKA) at 10 µM in the Eurofins-Panlabs radioligand binding assay (Eurofins_assay_218020). The note with it: Compound concentration 10.0 uM.
The target of test [11] is Glutamate NMDA receptor (Rattus norvegicus) (UniProt P35439+Q00959+Q00960+Q00961+Q62645+Q8VHN2+Q9R1M7). The note with it: Compound concentration 10.0 uM.
The species entered for another test is Rattus norvegicus. Put plainly: Inhibition of Glutamate, NMDA, Phencyclidine at 10 µM in the Eurofins-Panlabs radioligand binding assay (Eurofins_assay_233000). The format is protein-complex assay. The note with it: Compound concentration 10.0 uM.
The target of test [12] is Cannabinoid receptor 1 (Homo sapiens) (UniProt P21554). The note with it: Compound concentration 10.0 uM.
Test [13] deals with Melanocyte-stimulating hormone receptor (Homo sapiens) (UniProt Q01726). Nature of the test: Melanocortin MC1 Eurofins-Panlabs radioligand binding assay. The note with it: Compound concentration 10.0 uM.
Test [14] concerns the target Alpha-1A adrenergic receptor (Homo sapiens) (UniProt P35348). The note with it: Compound concentration 10.0 uM.
Test [15] addresses Gamma-aminobutyric acid type B receptor subunit 1 (Homo sapiens) (UniProt Q9UBS5). The note with it: Rattus norvegicus; Compound concentration 10.0 uM.
For test [16], the target named is D(2) dopamine receptor (Homo sapiens) (UniProt P14416). The note with it: Compound concentration 10.0 uM.
Test [17] deals with Histamine H1 receptor (Homo sapiens) (UniProt P35367). The note with it: Compound concentration 10.0 uM.
Test [18] has as its target Peroxisome proliferator-activated receptor gamma (Homo sapiens) (UniProt P37231). Nature of the test: PPARgamma Eurofins-Panlabs radioligand binding assay. The arrangement: ligand concentration 5 nM, non-specific ligand with concentration 0.5 µM L-797773, incubation time 18 h, incubation temperature 15 °C. The note with it: Compound concentration 10.0 uM.
Test [19] concerns the target Muscarinic acetylcholine receptor M4 (Homo sapiens) (UniProt P08173). The note with it: Compound concentration 10.0 uM.
Test [20] has as its target T3, Muscarinic acetylcholine receptor M1 (Homo sapiens) (UniProt P11229).
T3 sequence (whole entry): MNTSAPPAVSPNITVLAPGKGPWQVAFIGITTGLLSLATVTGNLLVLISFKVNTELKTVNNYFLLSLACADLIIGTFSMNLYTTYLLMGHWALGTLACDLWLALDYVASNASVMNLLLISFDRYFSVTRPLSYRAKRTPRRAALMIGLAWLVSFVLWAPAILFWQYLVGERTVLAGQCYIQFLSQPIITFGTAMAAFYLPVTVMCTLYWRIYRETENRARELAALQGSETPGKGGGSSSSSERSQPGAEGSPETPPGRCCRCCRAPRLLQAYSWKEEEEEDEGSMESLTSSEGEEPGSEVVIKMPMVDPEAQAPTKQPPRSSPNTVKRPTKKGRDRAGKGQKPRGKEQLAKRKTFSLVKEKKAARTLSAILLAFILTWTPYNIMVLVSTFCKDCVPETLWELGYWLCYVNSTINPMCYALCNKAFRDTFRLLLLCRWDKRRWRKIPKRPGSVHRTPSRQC
The note with it: Compound concentration 10.0 uM.

For test [21], the target named is Glutamate receptor 2 (Homo sapiens) (UniProt P42262). The note with it: Rattus norvegicus; Compound concentration 10.0 uM.
Test [22] concerns the target T2, Beta-1 adrenergic receptor.
Target sequence in this assay (P08588 whole entry, looked up): as the sequence (P08588 whole entry) above
The target in test [23] is T1, 5-hydroxytryptamine receptor 2B. Put plainly: Inhibition of Serotonin (5-Hydroxytryptamine) 5-HT2B at compound concentration of 10.0 uM in the Eurofins-Panlabs radioligand binding assay (Eurofins_assay_271700). The arrangement: ligand concentration 1.2 nM, non-specific ligand with concentration 10 uM Serotonin (5-HT), incubation time 60 min, incubation temperature 37 C.

Test [24] has as its target Alpha-1D adrenergic receptor (Homo sapiens) (UniProt P25100). The note with it: Compound concentration 10.0 uM.
The target in test [25] is Phosphodiesterase 3 (Homo sapiens) (UniProt Q14432+Q13370). Nature of the test: Inhibition of Phosphodiesterase PDE3 at compound concentration of 10.0 uM in the Eurofins-Panlabs enzyme assay (Eurofins_assay_152000). The note with it: Compound concentration 10.0 uM. Also on record: substrate with concentration 1.01 uM [3H] cAMP + cAMP, incubation time 20 min, incubation temperature 25 C. Type of test: protein assay.

The target in test [26] is Mu-type opioid receptor (Homo sapiens) (UniProt P35372). The note with it: Compound concentration 10.0 uM.

The structures appear in SMILES notation.

T1 sequence (P41595 whole entry): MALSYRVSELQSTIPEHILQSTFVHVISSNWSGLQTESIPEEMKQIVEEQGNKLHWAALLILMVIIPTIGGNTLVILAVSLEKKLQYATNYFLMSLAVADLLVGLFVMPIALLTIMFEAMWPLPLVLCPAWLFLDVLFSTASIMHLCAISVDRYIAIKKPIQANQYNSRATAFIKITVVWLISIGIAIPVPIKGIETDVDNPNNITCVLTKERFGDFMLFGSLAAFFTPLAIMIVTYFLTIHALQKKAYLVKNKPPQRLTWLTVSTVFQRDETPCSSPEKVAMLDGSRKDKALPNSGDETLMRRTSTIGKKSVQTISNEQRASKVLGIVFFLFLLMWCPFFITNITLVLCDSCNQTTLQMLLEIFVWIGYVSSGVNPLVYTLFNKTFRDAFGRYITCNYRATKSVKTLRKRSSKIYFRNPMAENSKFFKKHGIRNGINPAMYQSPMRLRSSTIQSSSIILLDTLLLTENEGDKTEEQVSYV
Chain of Acetylcholine receptor subunit alpha (Homo sapiens) (P02708 whole entry): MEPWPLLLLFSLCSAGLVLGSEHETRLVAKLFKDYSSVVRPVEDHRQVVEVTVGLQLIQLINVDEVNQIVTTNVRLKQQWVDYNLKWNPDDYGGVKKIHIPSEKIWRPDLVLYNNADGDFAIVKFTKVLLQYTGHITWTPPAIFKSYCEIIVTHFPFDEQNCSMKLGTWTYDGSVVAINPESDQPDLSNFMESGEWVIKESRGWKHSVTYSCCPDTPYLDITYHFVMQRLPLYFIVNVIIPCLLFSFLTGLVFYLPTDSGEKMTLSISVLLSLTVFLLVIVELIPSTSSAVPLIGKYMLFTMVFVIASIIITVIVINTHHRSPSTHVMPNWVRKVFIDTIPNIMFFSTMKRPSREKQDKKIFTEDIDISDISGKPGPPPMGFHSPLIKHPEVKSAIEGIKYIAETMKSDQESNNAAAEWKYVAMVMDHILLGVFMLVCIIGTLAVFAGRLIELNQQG
Chain of D(1A) dopamine receptor (Homo sapiens) (P21728 whole entry): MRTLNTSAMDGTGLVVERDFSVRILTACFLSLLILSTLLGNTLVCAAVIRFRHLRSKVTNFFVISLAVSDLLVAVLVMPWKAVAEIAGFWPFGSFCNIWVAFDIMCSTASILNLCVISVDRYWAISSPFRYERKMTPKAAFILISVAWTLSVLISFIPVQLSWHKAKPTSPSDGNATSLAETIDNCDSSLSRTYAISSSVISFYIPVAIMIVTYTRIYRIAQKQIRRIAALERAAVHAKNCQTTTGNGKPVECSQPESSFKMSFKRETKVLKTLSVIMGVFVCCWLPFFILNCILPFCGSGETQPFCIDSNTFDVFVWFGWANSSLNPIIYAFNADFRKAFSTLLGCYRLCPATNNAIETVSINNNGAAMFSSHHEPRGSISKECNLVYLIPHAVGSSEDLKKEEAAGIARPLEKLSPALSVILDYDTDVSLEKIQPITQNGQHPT
Chain of Alpha-1D adrenergic receptor (Homo sapiens) (P25100 whole entry): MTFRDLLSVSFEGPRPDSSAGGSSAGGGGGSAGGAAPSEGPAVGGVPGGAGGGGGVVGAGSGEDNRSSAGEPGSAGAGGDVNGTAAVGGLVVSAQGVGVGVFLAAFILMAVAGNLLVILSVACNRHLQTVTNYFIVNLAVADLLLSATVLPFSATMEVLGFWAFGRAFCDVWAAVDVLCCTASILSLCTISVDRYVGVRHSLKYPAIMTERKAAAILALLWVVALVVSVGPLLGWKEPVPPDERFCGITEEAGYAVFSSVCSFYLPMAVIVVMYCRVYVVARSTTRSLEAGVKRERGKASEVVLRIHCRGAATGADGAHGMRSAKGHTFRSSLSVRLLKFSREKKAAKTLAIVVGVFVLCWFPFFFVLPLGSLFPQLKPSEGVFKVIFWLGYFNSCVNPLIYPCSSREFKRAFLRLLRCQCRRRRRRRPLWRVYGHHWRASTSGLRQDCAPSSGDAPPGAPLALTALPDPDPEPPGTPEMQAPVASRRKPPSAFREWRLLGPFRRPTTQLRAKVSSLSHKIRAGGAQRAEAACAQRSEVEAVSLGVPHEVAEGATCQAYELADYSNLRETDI
Chain of Alpha-1A adrenergic receptor (Homo sapiens) (P35348 whole entry): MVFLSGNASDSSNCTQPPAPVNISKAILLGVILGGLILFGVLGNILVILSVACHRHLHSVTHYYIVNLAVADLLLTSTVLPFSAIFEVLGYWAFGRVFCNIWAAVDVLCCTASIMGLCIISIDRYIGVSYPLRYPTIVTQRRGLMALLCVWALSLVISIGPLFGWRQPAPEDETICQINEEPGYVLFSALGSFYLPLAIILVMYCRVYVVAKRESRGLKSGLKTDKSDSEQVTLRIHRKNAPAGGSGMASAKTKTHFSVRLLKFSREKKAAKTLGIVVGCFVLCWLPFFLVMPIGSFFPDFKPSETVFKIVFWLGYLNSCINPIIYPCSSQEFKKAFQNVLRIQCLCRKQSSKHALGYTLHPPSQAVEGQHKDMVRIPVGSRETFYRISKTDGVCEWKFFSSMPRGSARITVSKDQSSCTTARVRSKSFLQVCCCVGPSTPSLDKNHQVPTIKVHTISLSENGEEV
Chain of Mu-type opioid receptor (Homo sapiens) (P35372 whole entry): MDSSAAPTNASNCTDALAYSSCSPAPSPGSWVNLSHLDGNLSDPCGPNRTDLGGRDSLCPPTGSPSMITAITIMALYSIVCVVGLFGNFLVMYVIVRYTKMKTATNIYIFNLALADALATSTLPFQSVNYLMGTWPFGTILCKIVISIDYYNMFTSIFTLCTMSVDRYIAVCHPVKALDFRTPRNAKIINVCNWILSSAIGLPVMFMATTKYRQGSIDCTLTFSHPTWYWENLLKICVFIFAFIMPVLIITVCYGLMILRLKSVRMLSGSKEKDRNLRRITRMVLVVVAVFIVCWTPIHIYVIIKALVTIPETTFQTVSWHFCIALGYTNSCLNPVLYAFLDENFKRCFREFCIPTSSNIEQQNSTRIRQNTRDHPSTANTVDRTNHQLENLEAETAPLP
Chain of Muscarinic acetylcholine receptor M4 (Homo sapiens) (P08173 whole entry): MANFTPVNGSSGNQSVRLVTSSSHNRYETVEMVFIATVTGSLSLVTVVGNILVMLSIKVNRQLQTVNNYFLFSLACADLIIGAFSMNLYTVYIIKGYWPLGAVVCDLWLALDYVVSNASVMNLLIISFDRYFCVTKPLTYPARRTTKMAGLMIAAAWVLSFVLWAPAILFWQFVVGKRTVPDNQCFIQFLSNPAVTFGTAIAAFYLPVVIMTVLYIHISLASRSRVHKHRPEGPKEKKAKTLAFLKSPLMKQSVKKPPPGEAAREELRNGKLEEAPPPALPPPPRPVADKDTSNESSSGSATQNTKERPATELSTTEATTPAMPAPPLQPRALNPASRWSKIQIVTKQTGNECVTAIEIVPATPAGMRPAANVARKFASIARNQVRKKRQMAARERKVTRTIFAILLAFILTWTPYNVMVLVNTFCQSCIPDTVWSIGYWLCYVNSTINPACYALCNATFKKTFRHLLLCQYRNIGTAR
Chain of Glutamate receptor 2 (Homo sapiens) (P42262 whole entry): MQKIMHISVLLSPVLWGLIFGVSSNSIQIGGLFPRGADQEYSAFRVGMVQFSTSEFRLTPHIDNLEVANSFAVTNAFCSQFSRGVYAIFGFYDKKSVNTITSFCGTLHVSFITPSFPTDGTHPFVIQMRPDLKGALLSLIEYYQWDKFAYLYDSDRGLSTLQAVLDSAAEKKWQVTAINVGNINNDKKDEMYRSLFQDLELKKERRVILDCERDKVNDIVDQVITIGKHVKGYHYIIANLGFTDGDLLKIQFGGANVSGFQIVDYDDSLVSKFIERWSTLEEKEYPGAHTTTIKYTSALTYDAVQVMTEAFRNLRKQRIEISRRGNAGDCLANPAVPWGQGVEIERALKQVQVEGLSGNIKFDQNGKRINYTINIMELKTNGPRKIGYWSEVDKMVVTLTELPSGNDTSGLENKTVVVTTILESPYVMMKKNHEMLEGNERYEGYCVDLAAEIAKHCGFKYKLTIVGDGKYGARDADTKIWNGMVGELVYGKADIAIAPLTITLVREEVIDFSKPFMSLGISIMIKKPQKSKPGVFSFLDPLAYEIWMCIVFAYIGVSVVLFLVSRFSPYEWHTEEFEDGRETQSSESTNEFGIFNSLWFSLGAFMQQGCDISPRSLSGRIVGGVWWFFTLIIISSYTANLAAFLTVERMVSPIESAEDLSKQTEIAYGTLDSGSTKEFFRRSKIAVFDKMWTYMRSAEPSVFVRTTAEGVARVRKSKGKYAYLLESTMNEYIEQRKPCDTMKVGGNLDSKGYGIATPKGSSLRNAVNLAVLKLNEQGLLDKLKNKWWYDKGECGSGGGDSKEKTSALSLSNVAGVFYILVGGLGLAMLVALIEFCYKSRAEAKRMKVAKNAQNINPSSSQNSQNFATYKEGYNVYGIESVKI

As for `FC(F)(F)c1ccc2c(c1)nc(-c1cccnc1)n2C1CC1` [MSD-CYP11B2-Negative-control], the IC50 in [1] and in [3] was > 10 µM (not active) in each case. Besides, in test [2], the inhibition is -5.44%.
On to `CC(C)(O)c1cncc(-c2nc3ccc(F)cc3n2C2CC2)c1` [MSD-CYP11B2], for which the inhibition in [4] (Compound concentration 0.01 uM) is -2%; in test [4] (Compound concentration 0.1 uM) it was -5%; in test [4] (Compound concentration 1.0 uM) it was 17%; in [4] (Compound concentration 10.0 uM) it was 65%; in [5], 0%; in [6], 6.26%. Further, the inhibition in test [7] is -1%; in [9] it was 11%; in [10], 4%; in [11], -1%; in the test listed under Rattus norvegicus it was 3%; in test [12] it was 7%. Moreover, the inhibition in [13] was -1%; in test [14], -3.03%; in [15], 6%; in test [16], -4%; in test [17] it was 23%; in [18], 8%. In addition, the inhibition in [19] was -0.57%; in [20], -4%; in test [21], 22%; in [22] (Compound concentration 0.01 uM), 5%; in [22] (Compound concentration 0.1 uM), -1%; in test [22] (Compound concentration 1.0 uM) it was 9%. For the same compound, the inhibition in test [22] (Compound concentration 10.0 uM) is 51%; in test [24], 2.58%; in [25] it was 10%; in [26], 7%. Also, the IC50 in [8] was 9.62 µM; in test [23] it was 5.33 µM. Further, the Ki in test [8] was 5.55 µM; in test [23], 3.39 µM.
